Experimental data reported in ChEMBL document CHEMBL1140541, “Potent 2'-aminoanilide inhibitors of cFMS as potential anti-inflammatory agents” (Bioorg Med Chem Lett, 2007).

Experiments:
[1] = target: T1, Macrophage colony-stimulating factor 1 receptor (Homo sapiens, UniProt P07333); assay: Inhibition of ATP-induced autophosphorylation of cFMS tyrosine kinase
[2] = target: T1, Macrophage colony-stimulating factor 1 receptor; assay: Inhibition of ATP-induced autophosphorylation of cFMS tyrosine kinase in HEK 293 cells; format: cell-based, HEK293
[3] = Metabolic stability in human liver microsomes after 10 mins; format: ADME, Microsome; settings: read-out: Stability

T1 sequence (P07333 whole entry): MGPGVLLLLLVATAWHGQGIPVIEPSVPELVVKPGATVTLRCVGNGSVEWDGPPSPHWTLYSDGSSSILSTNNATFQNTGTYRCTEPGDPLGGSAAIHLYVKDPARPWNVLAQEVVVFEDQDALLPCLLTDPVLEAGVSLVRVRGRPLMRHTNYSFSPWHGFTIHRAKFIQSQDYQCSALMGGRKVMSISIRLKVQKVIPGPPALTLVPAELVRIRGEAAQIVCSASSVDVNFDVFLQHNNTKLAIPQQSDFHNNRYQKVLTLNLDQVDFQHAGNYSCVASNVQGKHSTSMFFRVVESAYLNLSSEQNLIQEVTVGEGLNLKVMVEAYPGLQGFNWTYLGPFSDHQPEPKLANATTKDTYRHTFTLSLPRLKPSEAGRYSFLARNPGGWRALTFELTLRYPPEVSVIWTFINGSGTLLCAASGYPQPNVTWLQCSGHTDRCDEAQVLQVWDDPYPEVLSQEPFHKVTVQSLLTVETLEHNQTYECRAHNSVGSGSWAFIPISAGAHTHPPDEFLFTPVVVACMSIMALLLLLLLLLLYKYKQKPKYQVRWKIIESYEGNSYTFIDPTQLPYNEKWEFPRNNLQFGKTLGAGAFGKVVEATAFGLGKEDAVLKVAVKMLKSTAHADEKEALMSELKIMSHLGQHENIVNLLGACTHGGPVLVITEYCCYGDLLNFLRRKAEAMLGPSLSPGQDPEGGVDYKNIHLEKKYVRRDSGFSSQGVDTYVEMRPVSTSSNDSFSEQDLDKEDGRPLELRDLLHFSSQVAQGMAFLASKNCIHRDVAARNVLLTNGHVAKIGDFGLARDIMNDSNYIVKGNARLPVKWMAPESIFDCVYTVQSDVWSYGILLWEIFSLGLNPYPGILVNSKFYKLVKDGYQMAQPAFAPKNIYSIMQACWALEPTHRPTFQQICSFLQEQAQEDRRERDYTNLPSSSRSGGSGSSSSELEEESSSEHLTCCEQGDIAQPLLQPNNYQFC

Structure (SMILES)	IC50 [1]	IC50 [2]	remaining at 10 min [3]
CCCN(CCC)c1ccccc1NC(=O)c1ccc([N+](=O)[O-])o1	> 10 µM		
O=C(Nc1ccccc1Nc1ccccc1)c1ccc([N+](=O)[O-])o1	> 10 µM		
O=C(Nc1ccccc1N1CCC1)c1ccc([N+](=O)[O-])o1	> 10 µM		
O=C(O)c1ccc(C(=O)Nc2ccccc2N2CCCCC2)o1	> 10 µM		
O=C(Nc1ccccc1N1CCCCC1)c1ccc(C(F)(F)F)o1	> 10 µM		
N#Cc1ccc(C(=O)Nc2cc(C(=O)O)ccc2N2CCCCC2)o1	> 2 µM	> 2 µM	
O=C(Nc1ccccc1N1CCCC1)c1ccc([N+](=O)[O-])o1	1.9 µM		
O=C(Nc1ccccc1N1C=CC=CC=C1)c1ccc([N+](=O)[O-])o1	0.26 µM	2 µM	
O=C(Nc1ccccc1N1CCCCC1)c1ccco1	> 10 µM		
O=C(Nc1ccccc1N1CCCCC1)c1ccc(Nc2ccccc2)o1	> 10 µM		
O=C(Nc1ccccc1N1CCCCC1)c1ccc(-c2ccccc2)o1	> 10 µM		
O=C(Nc1ccccc1N1CCCCC1)c1ccc(Br)o1	4.4 µM		
O=C(Nc1ccccc1N1CCCCC1)c1ccc(Cl)o1	1.9 µM		
O=C(Nc1ccccc1N1CCNCC1)c1ccc([N+](=O)[O-])o1	> 10 µM		
CCCN(CC)c1ccccc1NC(=O)c1ccc([N+](=O)[O-])o1	> 10 µM		
N#Cc1c[nH]c(C(=O)Nc2ccccc2N2CCCCC2)c1	0.047 µM	0.15 µM	
O=C(Nc1ccccc1N1CCC(CO)C1)c1ccc([N+](=O)[O-])o1 (stereo unspecified)	> 10 µM		
O=Cc1ccc(C(=O)Nc2ccccc2N2CCCCC2)o1	1.1 µM		
O=C(Nc1ccccc1N1CCC(O)C1)c1ccc([N+](=O)[O-])o1 (stereo unspecified)	> 10 µM		
O=C(Nc1ccccc1N1CCN(c2ccccc2)CC1)c1ccc([N+](=O)[O-])o1	> 10 µM		
NC(=O)c1ccc(C(=O)Nc2ccccc2N2CCCCC2)o1	> 10 µM		
CC1CCN(c2ccc(CO)cc2NC(=O)c2ccc(C#N)o2)CC1			83%
Nc1ccc(C(=O)Nc2ccccc2N2CCCCC2)o1	> 10 µM		
CC1CC(C)CN(c2ccccc2NC(=O)c2ccc([N+](=O)[O-])o2)C1 (stereo unspecified)	5.3 µM		
O=C(Nc1ccccc1N1CCCCC1)c1ccc([N+](=O)[O-])o1			41%

The remaining molecules from weak to strong by IC50 [1], led by results:

IC50 [1]	IC50 [2]	remaining at 10 min [3]	Structure (SMILES)
1.1 µM			O=C(Nc1ccccc1N1CCOCC1)c1ccc([N+](=O)[O-])o1
0.72 µM			CC1CCCCN1c1ccccc1NC(=O)c1ccc([N+](=O)[O-])o1 (stereo unspecified)
0.38 µM	2.2 µM		CC1CCCN(c2ccccc2NC(=O)c2ccc([N+](=O)[O-])o2)C1 (stereo unspecified)
0.2 µM	3.1 µM		N#Cc1ccc(C(=O)Nc2cc(CN)ccc2N2CCCCC2)o1
0.14 µM	0.37 µM		O=C(Nc1ccccc1N1CCC(O)CC1)c1ccc([N+](=O)[O-])o1
0.13 µM	1.4 µM		O=C(Nc1ccccc1N1CCC(CO)CC1)c1ccc([N+](=O)[O-])o1
0.12 µM	0.75 µM		N#Cc1ccc(N2CCCCC2)c(NC(=O)c2ccc(C#N)o2)c1
0.09 µM	0.96 µM		COc1ccc(N2CCCCC2)c(NC(=O)c2ccc(C#N)o2)c1
0.078 µM	0.3 µM	100%	CC1CCN(c2ccccc2NC(=O)c2ccc([N+](=O)[O-])o2)CC1
0.047 µM	0.18 µM		O=C(Nc1ccccc1N1CCCCC1)c1cc([N+](=O)[O-])c[nH]1
0.043 µM	0.23 µM		O=C(Nc1ccccc1N1CCC(CCO)CC1)c1ccc([N+](=O)[O-])o1
0.037 µM	0.33 µM		N#Cc1ccc(C(=O)Nc2cc(C=O)ccc2N2CCCCC2)o1
0.037 µM	0.31 µM		CS(=O)(=O)NCc1ccc(N2CCCCC2)c(NC(=O)c2ccc(C#N)o2)c1
0.036 µM	0.37 µM		N#Cc1ccc(C(=O)Nc2ccccc2N2CCCCC2)o1
0.034 µM	2.6 µM		N#Cc1ccc(C(=O)Nc2cc(CN=C(N)N)ccc2N2CCCCC2)o1
0.025 µM	0.19 µM	25%	N#Cc1ccc(C(=O)Nc2cc(CO)ccc2N2CCCCC2)o1
0.019 µM	0.17 µM		N#Cc1ccc(C(=O)Nc2cc(COCC(O)CO)ccc2N2CCCCC2)o1 (stereo unspecified)
0.017 µM	2.7 µM		N#Cc1ccc(C(=O)Nc2cc(O)ccc2N2CCCCC2)o1
0.017 µM	0.076 µM		N#Cc1ccc(C(=O)Nc2cc(N3CCCCC3)ccc2N2CCCCC2)o1
